From ChEMBL document CHEMBL1201862, “PubChem BioAssay data set” (2004)
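In this assay, cells in 96-well plates receive the compound at five concentrations for 48 hours. Endpoints are linearly interpolated between the surrounding concentrations. The concentration for 50% growth inhibition is given as GI50.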 Calls of active or inactive are those of the source. Cut-off read from the data, not from the text of the source: active = GI50 up to about 1.1 µM and inactive = higher.

Legend:
Experiment in all cases: DTP human tumour cell line panel, 48 h
SK-MEL-28 = tested on: SK-MEL-28
SF-539 = tested on: SF-539
U-251 = tested on: U-251
OVCAR-4 = tested on: OVCAR-4
HCT-116 = tested on: HCT-116
MOLT-4 = tested on: MOLT-4
MDA-MB-231 = tested on: MDA-MB-231
MCF7 = tested on: MCF7
SK-MEL-5 = tested on: SK-MEL-5
NCI-H23 = tested on: NCI-H23
A549 = tested on: A549
Malme-3M = tested on: Malme-3M
PC-3 = tested on: PC-3
OVCAR-3 = tested on: OVCAR-3
OVCAR-8 = tested on: OVCAR-8
HT-29 = tested on: HT-29
A498 = tested on: A498
HL-60 = tested on: HL-60

Compound | GI50 (SK-MEL-28) | GI50 (SF-539) | GI50 (U-251) | GI50 (OVCAR-4) | GI50 (HCT-116) | GI50 (MOLT-4) | GI50 (MDA-MB-231) | GI50 (MCF7) | GI50 (SK-MEL-5) | GI50 (NCI-H23) | GI50 (A549) | GI50 (Malme-3M) | GI50 (PC-3) | GI50 (OVCAR-3) | GI50 (OVCAR-8) | GI50 (HT-29) | GI50 (A498) | GI50 (HL-60)
Cc1cc(NS(=O)(=O)c2ccc(/N=N/c3c(Nc4ccccc4)nn(-c4ccc(S(=O)(=O)Nc5ccncn5)cc4)c3C)cc2)no1 | > 100 µM (inactive) | > 100 µM (inactive) | > 100 µM (inactive) | > 100 µM (inactive) | > 100 µM (inactive) | > 100 µM (inactive) | > 100 µM (inactive) | > 100 µM (inactive) | > 100 µM (inactive) | > 100 µM (inactive) | > 100 µM (inactive) | > 100 µM (inactive) | > 100 µM (inactive) | > 100 µM (inactive) | > 100 µM (inactive) | > 100 µM (inactive) | – | –
CCC(=O)NCCc1c[nH]c2ccc(OC)cc12 | > 100 µM (inactive) | > 100 µM (inactive) | > 100 µM (inactive) | > 100 µM (inactive) | > 100 µM (inactive) | > 100 µM (inactive) | > 100 µM (inactive) | > 100 µM (inactive) | > 100 µM (inactive) | > 100 µM (inactive) | > 100 µM (inactive) | > 100 µM (inactive) | > 100 µM (inactive) | > 100 µM (inactive) | > 100 µM (inactive) | > 100 µM (inactive) | > 100 µM (inactive) | –
CCNC12CCC(C1)C(C)(C)C2=O (stereo not drawn) | > 100 µM (inactive) | – | > 100 µM (inactive) | > 100 µM (inactive) | > 100 µM (inactive) | > 100 µM (inactive) | – | > 100 µM (inactive) | > 100 µM (inactive) | > 100 µM (inactive) | > 100 µM (inactive) | – | > 100 µM (inactive) | > 100 µM (inactive) | > 100 µM (inactive) | – | > 100 µM (inactive) | > 100 µM (inactive)
Cn1c(=O)c2c(nc3n(Cc4ccccc4)c(=O)c(Br)cn23)n(C)c1=O | > 100 µM (inactive) | > 100 µM (inactive) | > 100 µM (inactive) | > 100 µM (inactive) | > 100 µM (inactive) | > 100 µM (inactive) | > 100 µM (inactive) | > 100 µM (inactive) | > 100 µM (inactive) | > 100 µM (inactive) | > 100 µM (inactive) | – | > 100 µM (inactive) | > 100 µM (inactive) | > 100 µM (inactive) | > 100 µM (inactive) | > 100 µM (inactive) | > 100 µM (inactive)
COc1ccc(-n2cnn3c(=O)c4cn[nH]c4nc23)cc1 | – | > 10 µM (inactive) | > 10 µM (inactive) | > 10 µM (inactive) | > 10 µM (inactive) | > 10 µM (inactive) | 0.00724 µM (active) | > 10 µM (inactive) | > 10 µM (inactive) | > 10 µM (inactive) | > 10 µM (inactive) | > 10 µM (inactive) | > 10 µM (inactive) | > 10 µM (inactive) | > 10 µM (inactive) | > 10 µM (inactive) | – | > 10 µM (inactive)
Cc1c(NC(=O)CSC(=S)N(C)C)c(=O)n(-c2ccccc2)n1C | > 100 µM (inactive) | > 100 µM (inactive) | > 100 µM (inactive) | > 100 µM (inactive) | > 100 µM (inactive) | > 100 µM (inactive) | > 100 µM (inactive) | > 100 µM (inactive) | > 100 µM (inactive) | > 100 µM (inactive) | > 100 µM (inactive) | > 100 µM (inactive) | > 100 µM (inactive) | > 100 µM (inactive) | > 100 µM (inactive) | > 100 µM (inactive) | – | –
O=c1c2ccccc2n2c(-c3ccc(O)cc3)nnc2n1-c1ccccc1 | 24.3 µM (inactive) | 18 µM (inactive) | 17.2 µM (inactive) | 20 µM (inactive) | 20.9 µM (inactive) | 36.1 µM (inactive) | 17.1 µM (inactive) | – | 18.5 µM (inactive) | 20.3 µM (inactive) | 20.5 µM (inactive) | 21.5 µM (inactive) | 17.9 µM (inactive) | 18.2 µM (inactive) | 30.8 µM (inactive) | 22.1 µM (inactive) | 13 µM (inactive) | 62.8 µM (inactive)
Cc1c(O)nc(-n2[nH]c3c(c2=O)CCCC3)[nH]c1=O | > 100 µM (inactive) | – | > 100 µM (inactive) | > 100 µM (inactive) | > 100 µM (inactive) | > 100 µM (inactive) | > 100 µM (inactive) | – | > 100 µM (inactive) | > 100 µM (inactive) | – | > 100 µM (inactive) | > 100 µM (inactive) | – | > 100 µM (inactive) | > 100 µM (inactive) | > 100 µM (inactive) | > 100 µM (inactive)
O=C1/C(=C/c2ccccc2O)N=C(c2ccccc2)N1c1nc2ccccc2s1 | 21.3 µM (inactive) | 20.7 µM (inactive) | 10.1 µM (inactive) | 32.1 µM (inactive) | 14.3 µM (inactive) | 19.5 µM (inactive) | 18.3 µM (inactive) | 3.37 µM (inactive) | 7.57 µM (inactive) | 11.1 µM (inactive) | – | – | 15.7 µM (inactive) | 7.43 µM (inactive) | 23.9 µM (inactive) | 20.9 µM (inactive) | 20.4 µM (inactive) | 1.21 µM (inactive)
